According to publication PMC12102759 (Protein Science : A Publication of the Protein Society, 2025):
Where two headings read alike, the source gives them in different places.

System: PABPC1 PABC
Type: binding, human
Conditions: DMS-BM library, bait PABPC1 PABC, row aa = residue at this position; for DMS-derived PSSM value, position T3 / DMS-derived PSSM value, position T1: T = wild type; for DMS-derived PSSM value, position R14: R = wild type
[1] = prey ATXN2, TLNPNAKEFNPRSF(averaged) over the two overlapping peptides, N = wild type
[2] = prey ATXN2, peptide TLNPNAKEFNPRSFSQ, E = wild type
[3] = prey ATXN2, peptide KSTLNPNAKEFNPRSF, E = wild type
[4] = prey ATXN2, peptide KSTLNPNAKEFNPRSF, P = wild type
[5] = prey ATXN2, peptide KSTLNPNAKEFNPRSF, A = wild type
[6] = prey ATXN2, peptide KSTLNPNAKEFNPRSF
[7] = prey ATXN2, peptide KSTLNPNAKEFNPRSF, S = wild type
[8] = prey ATXN2, peptide TLNPNAKEFNPRSFSQ, N = wild type
[9] = prey ATXN2, TLNPNAKEFNPRSF(averaged) over the two overlapping peptides, F = wild type
[10] = prey ATXN2, TLNPNAKEFNPRSF(averaged) over the two overlapping peptides, P = wild type
[11] = prey ATXN2, peptide TLNPNAKEFNPRSFSQ, F = wild type
[12] = prey ATXN2, peptide KSTLNPNAKEFNPRSF, K = wild type
[13] = prey ATXN2, peptide KSTLNPNAKEFNPRSF, N = wild type
[14] = prey ATXN2, peptide KSTLNPNAKEFNPRSF, F = wild type
[15] = prey ATXN2, peptide TLNPNAKEFNPRSFSQ
[16] = prey ATXN2, peptide TLNPNAKEFNPRSFSQ, K = wild type

## TLNPNAKEFNPRSF(averaged) N3M (TLMPNAKEFNPRSF)
[1]
  DMS-derived PSSM value (averaged), position N3: 0

## TLNPNAKEFNPRSFSQ L2T (TTNPNAKEFNPRSFSQ)
Prey ATXN2, peptide TLNPNAKEFNPRSFSQ, L = wild type
  DMS-derived PSSM value, position L2: 0

## TLNPNAKEFNPRSFSQ E8N (TLNPNAKNFNPRSFSQ)
[2]
  DMS-derived PSSM value, position E8: 0.1259

## KSTLNPNAKEFNPRSF E10H (KSTLNPNAKHFNPRSF)
[3]
  DMS-derived PSSM value, position E10: 0.3776

## KSTLNPNAKEFNPRSF P6E (KSTLNENAKEFNPRSF)
[4]
  DMS-derived PSSM value, position P6: 0

## KSTLNPNAKEFNPRSF A8P (KSTLNPNPKEFNPRSF)
[5]
  DMS-derived PSSM value, position A8: 0

## TLNPNAKEFNPRSFSQ P11G (TLNPNAKEFNGRSFSQ)
Prey ATXN2, peptide TLNPNAKEFNPRSFSQ, P = wild type
  DMS-derived PSSM value, position P11: 0.04287

## TLNPNAKEFNPRSF(averaged) N5W (TLNPWAKEFNPRSF)
[1]
  DMS-derived PSSM value (averaged), position N5: 0.0006294

## KSTLNPNAKEFNPRSF T3S (KSSLNPNAKEFNPRSF)
[6]
  DMS-derived PSSM value, position T3: 0

## KSTLNPNAKEFNPRSF S15L (KSTLNPNAKEFNPRLF)
[7]
  DMS-derived PSSM value, position S15: 0.4164

## TLNPNAKEFNPRSFSQ N3L (TLLPNAKEFNPRSFSQ)
[8]
  DMS-derived PSSM value, position N3: 0

## TLNPNAKEFNPRSF(averaged) F14S (TLNPNAKEFNPRSS)
[9]
  DMS-derived PSSM value (averaged), position F14: 0.01539

## TLNPNAKEFNPRSF(averaged) P11S (TLNPNAKEFNSRSF)
[10]
  DMS-derived PSSM value (averaged), position P11: 0.02695

## TLNPNAKEFNPRSF(averaged) F9R (TLNPNAKERNPRSF)
[9]
  DMS-derived PSSM value (averaged), position F9: 0

## TLNPNAKEFNPRSFSQ F14W (TLNPNAKEFNPRSWSQ)
[11]
  DMS-derived PSSM value, position F14: 0.01201

## TLNPNAKEFNPRSF(averaged) L2W (TWNPNAKEFNPRSF)
Prey ATXN2, TLNPNAKEFNPRSF(averaged) over the two overlapping peptides, L = wild type
  DMS-derived PSSM value (averaged), position L2: 0.07274

## KSTLNPNAKEFNPRSF K9N (KSTLNPNANEFNPRSF)
[12]
  DMS-derived PSSM value, position K9: 0.1194

## KSTLNPNAKEFNPRSF E10R (KSTLNPNAKRFNPRSF)
[3]
  DMS-derived PSSM value, position E10: 0

## KSTLNPNAKEFNPRSF N7D (KSTLNPDAKEFNPRSF)
[13]
  DMS-derived PSSM value, position N7: 0.07378

## KSTLNPNAKEFNPRSF E10A (KSTLNPNAKAFNPRSF)
[3]
  DMS-derived PSSM value, position E10: 0.002857

## KSTLNPNAKEFNPRSF F11T (KSTLNPNAKETNPRSF)
[14]
  DMS-derived PSSM value, position F11: 0

## TLNPNAKEFNPRSF(averaged) P11Y (TLNPNAKEFNYRSF)
[10]
  DMS-derived PSSM value (averaged), position P11: 0.02499

## TLNPNAKEFNPRSFSQ N3I (TLIPNAKEFNPRSFSQ)
[8]
  DMS-derived PSSM value, position N3: 0

## TLNPNAKEFNPRSFSQ N10G (TLNPNAKEFGPRSFSQ)
[8]
  DMS-derived PSSM value, position N10: 0.01946

## TLNPNAKEFNPRSFSQ F14A (TLNPNAKEFNPRSASQ)
[11]
  DMS-derived PSSM value, position F14: 0.01754

## TLNPNAKEFNPRSF(averaged) F9Q (TLNPNAKEQNPRSF)
[9]
  DMS-derived PSSM value (averaged), position F9: 0

## KSTLNPNAKEFNPRSF F11Q (KSTLNPNAKEQNPRSF)
[14]
  DMS-derived PSSM value, position F11: 0

## KSTLNPNAKEFNPRSF R14H (KSTLNPNAKEFNPHSF)
[6]
  DMS-derived PSSM value, position R14: 0.02913

## TLNPNAKEFNPRSFSQ T1M (MLNPNAKEFNPRSFSQ)
[15]
  DMS-derived PSSM value, position T1: 0.006287

## TLNPNAKEFNPRSF(averaged) P11G (TLNPNAKEFNGRSF)
[10]
  DMS-derived PSSM value (averaged), position P11: 0.05139

## TLNPNAKEFNPRSFSQ E8R (TLNPNAKRFNPRSFSQ)
[2]
  DMS-derived PSSM value, position E8: 0

## KSTLNPNAKEFNPRSF K9F (KSTLNPNAFEFNPRSF)
[12]
  DMS-derived PSSM value, position K9: 0.02411

## TLNPNAKEFNPRSF(averaged) F14R (TLNPNAKEFNPRSR)
[9]
  DMS-derived PSSM value (averaged), position F14: 0.0001414

## TLNPNAKEFNPRSF(averaged) P11K (TLNPNAKEFNKRSF)
[10]
  DMS-derived PSSM value (averaged), position P11: 0

## KSTLNPNAKEFNPRSF T3G (KSGLNPNAKEFNPRSF)
[6]
  DMS-derived PSSM value, position T3: 0.0785

## KSTLNPNAKEFNPRSF A8E (KSTLNPNEKEFNPRSF)
[5]
  DMS-derived PSSM value, position A8: 0

## TLNPNAKEFNPRSF(averaged) K7M (TLNPNAMEFNPRSF)
Prey ATXN2, TLNPNAKEFNPRSF(averaged) over the two overlapping peptides, K = wild type
  DMS-derived PSSM value (averaged), position K7: 0.05548

## KSTLNPNAKEFNPRSF K9V (KSTLNPNAVEFNPRSF)
[12]
  DMS-derived PSSM value, position K9: 0.0001287

## KSTLNPNAKEFNPRSF F11S (KSTLNPNAKESNPRSF)
[14]
  DMS-derived PSSM value, position F11: 0

## KSTLNPNAKEFNPRSF F16M (KSTLNPNAKEFNPRSM)
[14]
  DMS-derived PSSM value, position F16: 0.02916

## TLNPNAKEFNPRSFSQ N5K (TLNPKAKEFNPRSFSQ)
[8]
  DMS-derived PSSM value, position N5: 0.01257

## KSTLNPNAKEFNPRSF R14Q (KSTLNPNAKEFNPQSF)
[6]
  DMS-derived PSSM value, position R14: 0.09624

## TLNPNAKEFNPRSFSQ N10D (TLNPNAKEFDPRSFSQ)
[8]
  DMS-derived PSSM value, position N10: 0.08868

## KSTLNPNAKEFNPRSF R14G (KSTLNPNAKEFNPGSF)
[6]
  DMS-derived PSSM value, position R14: 0.105

## KSTLNPNAKEFNPRSF S2K (KKTLNPNAKEFNPRSF)
[7]
  DMS-derived PSSM value, position S2: 0

## TLNPNAKEFNPRSFSQ N10Y (TLNPNAKEFYPRSFSQ)
[8]
  DMS-derived PSSM value, position N10: 0.09858

## TLNPNAKEFNPRSFSQ K7T (TLNPNATEFNPRSFSQ)
[16]
  DMS-derived PSSM value, position K7: 0.006845

## TLNPNAKEFNPRSFSQ T1V (VLNPNAKEFNPRSFSQ)
[15]
  DMS-derived PSSM value, position T1: 0.03168

## TLNPNAKEFNPRSF(averaged) E8P (TLNPNAKPFNPRSF)
Prey ATXN2, TLNPNAKEFNPRSF(averaged) over the two overlapping peptides, E = wild type
  DMS-derived PSSM value (averaged), position E8: 0.1423

## TLNPNAKEFNPRSF(averaged) N5E (TLNPEAKEFNPRSF)
[1]
  DMS-derived PSSM value (averaged), position N5: 0.01598

## TLNPNAKEFNPRSFSQ S13H (TLNPNAKEFNPRHFSQ)
Prey ATXN2, peptide TLNPNAKEFNPRSFSQ, S = wild type
  DMS-derived PSSM value, position S13: 0.01388

## KSTLNPNAKEFNPRSF N12M (KSTLNPNAKEFMPRSF)
[13]
  DMS-derived PSSM value, position N12: 0.08333

## TLNPNAKEFNPRSFSQ T1P (PLNPNAKEFNPRSFSQ)
[15]
  DMS-derived PSSM value, position T1: 0.04902

## KSTLNPNAKEFNPRSF T3L (KSLLNPNAKEFNPRSF)
[6]
  DMS-derived PSSM value, position T3: 0.01491

## TLNPNAKEFNPRSFSQ T1I (ILNPNAKEFNPRSFSQ)
[15]
  DMS-derived PSSM value, position T1: 0.00436

## KSTLNPNAKEFNPRSF N5G (KSTLGPNAKEFNPRSF)
[13]
  DMS-derived PSSM value, position N5: 0

## KSTLNPNAKEFNPRSF P13K (KSTLNPNAKEFNKRSF)
[4]
  DMS-derived PSSM value, position P13: 0

## TLNPNAKEFNPRSFSQ F9L (TLNPNAKELNPRSFSQ)
[11]
  DMS-derived PSSM value, position F9: 0

## KSTLNPNAKEFNPRSF P13A (KSTLNPNAKEFNARSF)
[4]
  DMS-derived PSSM value, position P13: 0.005231

## TLNPNAKEFNPRSF(averaged) P4A (TLNANAKEFNPRSF)
[10]
  DMS-derived PSSM value (averaged), position P4: 0.01026

## TLNPNAKEFNPRSFSQ K7F (TLNPNAFEFNPRSFSQ)
[16]
  DMS-derived PSSM value, position K7: 0.058

## TLNPNAKEFNPRSFSQ N10I (TLNPNAKEFIPRSFSQ)
[8]
  DMS-derived PSSM value, position N10: 0.00743

## TLNPNAKEFNPRSF(averaged) P4T (TLNTNAKEFNPRSF)
[10]
  DMS-derived PSSM value (averaged), position P4: 0.01555

## TLNPNAKEFNPRSF(averaged) P11L (TLNPNAKEFNLRSF)
[10]
  DMS-derived PSSM value (averaged), position P11: 0.01529

## KSTLNPNAKEFNPRSF F11E (KSTLNPNAKEENPRSF)
[14]
  DMS-derived PSSM value, position F11: 0

## TLNPNAKEFNPRSFSQ A6F (TLNPNFKEFNPRSFSQ)
Prey ATXN2, peptide TLNPNAKEFNPRSFSQ, A = wild type
  DMS-derived PSSM value, position A6: 0

## KSTLNPNAKEFNPRSF A8L (KSTLNPNLKEFNPRSF)
[5]
  DMS-derived PSSM value, position A8: 0

## KSTLNPNAKEFNPRSF A8W (KSTLNPNWKEFNPRSF)
[5]
  DMS-derived PSSM value, position A8: 0

## TLNPNAKEFNPRSF(averaged) N5T (TLNPTAKEFNPRSF)
[1]
  DMS-derived PSSM value (averaged), position N5: 0.01041

## KSTLNPNAKEFNPRSF N5A (KSTLAPNAKEFNPRSF)
[13]
  DMS-derived PSSM value, position N5: 0
